Tests used:
[1] = target: T1, CD38 NAD+ hydrolase activity in NH7-dCas9 cells (Jurkat clone) (Homo sapiens, UniProt P28907); assay: Fluorescence-based NAD+ hydrolase activity assay with human T cell line NH7-dCas9 cells-Jurkat clone (Assay 1); details: read-out: Assay 1 Arithmetic mean IC50
T1 construct: The assay utilized CD38 expressing NH7-dCas9 cells (Jurkat clone); host or cells: NH7-dCas9 cells (Jurkat clone)
T1 sequence (P28907 1-300): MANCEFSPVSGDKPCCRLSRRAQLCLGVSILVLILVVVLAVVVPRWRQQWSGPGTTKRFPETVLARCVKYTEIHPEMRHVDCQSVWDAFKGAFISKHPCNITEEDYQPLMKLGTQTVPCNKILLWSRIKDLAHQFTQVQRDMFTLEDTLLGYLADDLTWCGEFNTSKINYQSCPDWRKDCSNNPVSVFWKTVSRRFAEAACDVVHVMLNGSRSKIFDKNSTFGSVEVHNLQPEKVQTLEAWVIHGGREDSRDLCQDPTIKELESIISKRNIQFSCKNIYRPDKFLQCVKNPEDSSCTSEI
Experimental: For the modified assay, the performance validation criteria of the assay as a High Throughput Screening (HTS): Z-factor within the plate was greater than 0.89 (optimal HTS z-factor >0.5) and the Intra-plate, inter-plate and day to day variability (CV) was less than 20%.
NAD+ hydrolase activity of a human T cell line treated with test compounds was measured using a fluorescence-based assay. NH7-dCas9 cells (Jurkat clone) were provided by the Weissman Lab (UCSF 1700 4th St., Byers Hall, Room 403B, San Francisco, CA 94158-2330). Briefly, cells were centrifuged, resuspended in 44 μl PBS/10^6 cells and plated in a 96 well black plate (CORNING) at a density of 1×10^6 per well.
Each test compound was received in a powder state and dissolved in DMSO as a 25 mM stock solution. Each test compound was serially diluted in order to generate a dose-response curve. The dilution series of each test compound in DMSO was prepared at 50 times the concentrations to be assayed. Each test compound was diluted to generate a 5-fold dilution series of 8 concentrations from 20 μM to 0.256 nM in order to assay 8 final concentrations ranging from 400 nM to 25.6 pM. One μl of the 50× concentration compound series was added to each well of the plate containing 1×10^6 cells in PBS.
Each plate had the following intra plate controls: 3 wells containing cells treated with vehicle only (DMSO), 3 wells of cells treated with the reference compound 78c at a final concentration of 50 nM and 2 wells containing only PBS (used as a background value).
(§1) The reaction was started by adding nicotinamide 1,N^6-etheno-adenine dinucleotide (Sigma Aldrich) to reach a final concentration of 80 µM. The samples were excited at 321-15 nm, and the emission of fluorescence was measured at 410-20 nm at 37° C. every minute for 1 hr in a Clariostar® microplate reader (BMG LABTECH). NAD+ hydrolase activity was calculated as the slope of the linear portion of the fluorescence-time curve using the MARS data analysis software (BMG LABTECH). The data were uploaded in the Collaborative Drug Design (CDD) Software and for each compound the IC50 was calculated by the software. Each compound was tested in 3 independent experiments on 3 separate days to establish the reproducibility of the results. For each plate, the z-factor was also calculated as a plate quality using the CDD software.

[2] = target: T2, recombinant human CD38 Protein (Homo sapiens, UniProt P28907); assay: Fluorescence-based NAD+ hydrolase activity assay with human recombinant CD38 protein (Assay 3); type: biochemical; details: read-out: Assay 3 Arithmetic mean IC50
T2 construct: purchased R&D System
T2 sequence (P28907 1-300): T1 sequence (P28907 1-300)
Experimental: This protocol was modified from the following references (Muller et al. (1983); (Schultz et al. (2018); (Matalonga et al. (2017); and de Oliveira et al. (2018), supra.
NAD+ hydrolase activity of the human recombinant CD38 protein treated with test compounds was measured using a fluorescence-based assay. Briefly, recombinant human CD38 Protein (R&D System) was resuspended in 44 μl/well of Sucrose-Tris Buffer (Sucrose 0.25 M, Tris pH 7.4 40 mM) and plated in a 96-well black plate (CORNING) at a density of 10 ng/well.
Each test compound was received in a powder state and dissolved in DMSO as a 25 mM stock solution. Each test compound was serially diluted in order to generate a dose-response curve. The dilution series of each test compound in DMSO was prepared at 50× the concentrations to be assayed. Each test compound was diluted to generate a 5-fold dilution series of 8 concentrations from 20 μM to 0.256 nM in order to assay 8 final concentrations ranging from ranging from 400 nM to 25.6 pM. One μl of the 50× concentration compound series was added to each well of the plate containing 10 ng protein in Sucrose-Tris buffer.
as §1, with “started” for “started by”, “nm” for “nm,”, “Each compound was tested in 3 independent experiments on 3 separate days to establish the reproducibility of the results.” left out

| Structure (SMILES) | IC50 [1] | IC50 [2] |
| --- | --- | --- |
| Cc1cc(C(=O)Nc2ccc(C(N)=O)nc2)nc(-n2ccnc2)c1 [Compound 54, N-(6-carbamoylpyridin-3-yl)-6-(1H-imidazol-1-yl)-4-methylpicolinamide] | < 1 nM | 1 to 50 nM |
| Cc1cc(C(=O)Nc2ccnc(C(N)=O)c2)nc(-n2ccnc2)c1 [Compound 55] | < 1 nM | < 1 nM |
| CNC(=O)c1cc(NC(=O)c2cc(C)cc(-n3ccnc3)n2)ccn1 [Compound 56] | < 1 nM | 1 to 50 nM |
| CNC(=O)c1ccc(NC(=O)c2cc(C)cc(-n3ccnc3)n2)cn1 [Compound 57] | < 1 nM | < 1 nM |
| Cc1ccc(-n2ccnc2)nc1C(=O)Nc1cccnc1 [Compound 59, 6-(1H-imidazol-1-yl)-3-methyl-N-(pyridin-3-yl)picolinamide] | 1 to 50 nM | 1 to 50 nM |
| O=C(Nc1cccnc1)c1ccc(F)c(-n2ccnc2)n1 [Compound 61] | 1 to 50 nM | 1 to 50 nM |
| O=C(Nc1cccnc1)c1nc(-n2ccnc2)ccc1F [Compound 62] | 1 to 50 nM | 1 to 50 nM |
| Nc1cc(C(=O)Nc2cccnc2)nc(-n2ccnc2)c1 [Compound 67] | < 1 nM | 1 to 50 nM |

Source: patent US12509451B2, “Heteroaryl amide inhibitors of CD38” (NAPA THERAPEUTICS LTD., priority 2020, dated 2025)
